Experimental data reported in patent US20230055582A1, “COMPOSITIONS AND METHODS FOR TREATMENT OF INFLAMMATORY CONDITIONS AND DISEASES OF THE SKIN” (priority 2020, published 2023).
Several values for one entry are separate records, joined by “and”; a condition that tells them apart may be missing. Identical values can stand only once.

How the values were obtained:
[1] = test system: GM-CSF; test: GM-CSF in medium of poly I:C treated HaCaT cells, multiplex immunoassay; assay type: cell-based, human; details: 24 h
Method: (§1) CBD, PEA and DB. CBD was purchased from Sigma Israel. […] CBD was 3.18 mM solution in ethanol. DB was in pure liquid form. PEA was in powder form.
(§2) Procedure and administration of active compounds. […] Samples were frozen and shipped on dry ice.
(§3) Analysis of cytokine content. Samples were shipped to Eve Technologies, Calgary (Canada) for analysis. Samples were analyzed using Human Focused 13-Plex Discovery Assay, a Multiplex immunoassay with fluorometric detection. Preliminary tests were conducted in order to determine samples dilution. The cytokines measured were granulocyte-macrophage colony-stimulating factor (GM-CSF), interferon gamma (IFNy), interleukin 1 beta (IL-1B), IL-2, IL-4, IL-5, IL-6, IL-8, IL-10, IL-12, IL-13, monocyte chemoattractant protein-1 (MCP-1) and tumor necrosis factor alpha (TNF-α). Results were calculated only for GM-CSF, IL-6, IL-8, MCP-1 and TNF-α.

[2] = test system: TNF-α; test: TNF-α in medium of poly I:C treated HaCaT cells, multiplex immunoassay; assay type: cell-based, human; details: 24 h
Method: as §1, §2, §3

[3] = test system: GM-CSF, IL-6, IL-8, MCP-1 and TNF-α; test: Five inflammatory cytokines taken together, poly I:C treated HaCaT cells; assay type: cell-based, human; details: higher dose (10 μM) with poly I:C 100 μg/mL
Method: (§4) Cell culture. The human keratinocyte cell line HaCaT was a kind gift from Prof. Joseph Kost (Department of Chemical Engineering, Ben-Gurion University of the Negev, Israel). Cells were cultured in Dulbecco's Modified Eagle Medium (DMEM) (Biological Industries, Kibbutz Beit-Haemek, Israel) supplemented with 1% antibiotic-antimycotic (Tivan Biotech, Kfar-Saba, Israel), 1mM sodium pyruvate, and 10% fetal bovine serum (FBS) (Biological Industries), and were maintained in an incubator with 5% CO2 at 37° C.
(§5) CBD was purchased from Sigma Israel. […] PEA was in powder form. A 30 mM stock solution was made by dissolving PEA in dimethyl sulfoxide (DMSO). […] All stocks were filtered using a 0.2 μm filter before use and further diluted to the required concentration in cell medium. Vehicle (control) solutions contained the corresponding amount of DMSO (0.007%).
90,000 cells/well were plated on 12-well plates and allowed to attach at 37° C. for 24 hours. […]
Analysis of cytokine content. […] Samples were analyzed using Human Focused 13-Plex Discovery Assay, a Multiplex immunoassay with fluorometric detection. […] The cytokines measured were granulocyte-macrophage colony-stimulating factor (GM-CSF), interferon gamma (IFNy), interleukin 1 beta (IL-1B), IL-2, IL-4, IL-5, IL-6, IL-8, IL-10, IL-12, IL-13, monocyte chemoattractant protein-1 (MCP-1) and tumor necrosis factor alpha (TNF-α).

[4] = test system: IL-8; test: IL-8 in medium of poly I:C treated HaCaT cells, multiplex immunoassay; assay type: cell-based, human; details: 24 h
Method: (§6) CBD was purchased from Sigma Israel. […] PEA was in powder form.
(§7) Samples were frozen and shipped on dry ice.
as §3, with “(TNF-α).” for “(TNF-α). Results were calculated only for GM-CSF, IL-6, IL-8, MCP-1 and TNF-α.”

[5] = test system: IL-6; test: IL-6 in medium of poly I:C treated HaCaT cells, multiplex immunoassay; assay type: cell-based, human; details: 24 h
Method: as §6, §7
as §3, with “(TNF-α).” for “(TNF-α). Results were calculated only for GM-CSF, IL-6, IL-8, MCP-1 and TNF-α.”

[6] = test system: MCP-1; test: MCP-1 in medium of poly I:C treated HaCaT cells, multiplex immunoassay; assay type: cell-based, human; details: for MCP-1: 24 h
Method: as §1, §2, §3

[7] = test system: HaCaT cells; test: Toxicity on HaCaT cells, qualitative light-microscope assessment after 50 hours; assay type: cell-based, human
Method: as §1
Toxicity. HaCaT cells were incubated in 12 wells plates until 60-70% confluency was achieved. Subsequently, the cells were washed and incubated with medium containing PEA, DB or CBD. After 50 hours of incubation, the wells were observed under a light microscope and toxicity of the active compounds was assessed qualitatively by comparing the treated cells to controls incubated with vehicle. As concluded, under the conditions tested, PEA can be safely used in concentration of up to 50 μM, DB is non-toxic at concentrations of up to 0.01%, and CBD is non-toxic at concentration of up to 15 μM.

[8] = test system: HaCaT cells; test: Cell viability, crystal violet assay, poly I:C treated HaCaT cells; details: for Cell viability increase: vs poly I:C alone; for Cell viability: 24 h
Method: as §4, §5
90,000 cells/well were plated on 12-well plates and allowed to attach at 37° C. for 24 hours. Subsequently, the wells were washed with phosphate-buffered saline (PBS) and the medium was replaced with a medium containing either vehicle (control) or poly I:C. […] The wells were then incubated for further 24 h and 50μL samples were drawn for analysis of cytokines. Samples were frozen and shipped on dry ice.
Cell viability assay. Cell viability was measured using a crystal violet assay. 90,000 cells/well were plated on 12-well plates and allowed to attach at 37° C. for 24 hours. […] 24 hours later medium was aspirated, and cells were washed twice with PBS. 500 μL of crystal violet staining solution (0.5% (w/v) crystal violet powder, 20% methanol) was added to each well, followed by incubation for 30 min at room temperature. The staining solution was discarded, the plates were washed 5 times with distilled water and dried, and 500 μL of 10% acetic acid (v/v) was added to each well. Absorbance was measured at 595 nm.

[9] = CBD 3 μM with poly I:C 100 μg/mL
[10] = CBD 3 μM with poly I:C 100 μg/mL, percent of poly I:C alone
[11] = CBD 10 μM with poly I:C 100 μg/mL
[12] = CBD 10 μM with poly I:C 100 μg/mL, percent of poly I:C alone
[13] = PEA 0.2 μM with poly I:C 100 μg/mL
[14] = PEA 0.2 μM with poly I:C 100 μg/mL, percent of poly I:C alone
[15] = PEA 2 μM with poly I:C 100 μg/mL
[16] = PEA 2 μM with poly I:C 100 μg/mL, percent of poly I:C alone
[17] = poly I:C 20 μg/mL, percent of control values
[18] = poly I:C 50 μg/mL, percent of control values
[19] = poly I:C 100 μg/mL, percent of control values

C=C(C)[C@@H]1CCC(C)=C[C@H]1c1c(O)cc(CCCCC)cc1O [CBD, 2-[(1R,6R)-6-isopropenyl-3-methylcyclohex-2-en-1-yl]-5-pentylbenzene-1,3-diol]
GM-CSF [1, 9]: 56.44 pg/mL | GM-CSF [1, 10]: 73.32% | GM-CSF [1, 11]: 49.55 pg/mL | GM-CSF [1, 12]: 64.37% | TNF-α [2, 9]: 3.277 pg/mL | TNF-α [2, 10]: 50.64% | TNF-α [2, 11]: 1.517 pg/mL | TNF-α [2, 12]: 23.44% | All cytokines measured reduced [3]: 60-80% | IL-8 [4, 9]: 643.44 pg/mL | IL-8 [4, 10]: 70.05% | IL-8 [4, 11]: 335.44 pg/mL | IL-8 [4, 12]: 36.52% | IL-6 [5, 9]: 18.95 pg/mL | IL-6 [5, 10]: 53.94% and 53.04% | IL-6 [5, 11]: 12.15 pg/mL | IL-6 [5, 12]: 34.57% | MCP-1 [6, 9]: 956.97 pg/mL and 945.97 pg/mL | MCP-1 [6, 10]: 54.77% | MCP-1 [6, 11]: 272.60 pg/mL | MCP-1 [6, 12]: 15.78% | Toxicity ([7]; 5 μM, 50 hours): non toxic | Toxicity ([7]; 15 μM, 50 hours): non toxic | Toxicity ([7]; 45 μM, 50 hours): very toxic | non-toxic (safely used) concentration ([7]; HaCaT cells, 50 hours, under the conditions tested): up to 15 μM | Cell viability increase ([8]; 3 μM with poly I:C 100 μg/mL): 5.5% | Cell viability increase ([8]; 10 μM with poly I:C 100 μg/mL): 15.3% | Cell viability [8, 9]: 1.328 O.D. | Cell viability [8, 10]: 105.50% | Cell viability [8, 11]: 1.451 O.D. | Cell viability [8, 12]: 115.29%

CCCCCCCCCCCCCCCC(=O)NCCO [PEA, palmitoylethanolamide]
GM-CSF [1, 13]: 60.36 pg/mL | GM-CSF [1, 14]: 78.42% | GM-CSF [1, 15]: 57.54 pg/mL | GM-CSF [1, 16]: 74.75% | TNF-α [2, 13]: 4.673 pg/mL | TNF-α [2, 14]: 72.23% | TNF-α [2, 15]: 4.470 pg/mL | TNF-α [2, 16]: 69.09% | IL-8 [4, 13]: 810.38 pg/mL | IL-8 [4, 14]: 88.23% | IL-8 [4, 15]: 773.38 pg/mL and 773.27 pg/mL | IL-8 [4, 16]: 84.19% | IL-6 [5, 13]: 27.43 pg/mL | IL-6 [5, 14]: 78.08% | IL-6 [5, 15]: 27.23 pg/mL | IL-6 [5, 16]: 77.49% | MCP-1 [6, 13]: 1345.28 pg/mL | MCP-1 [6, 14]: 77.88% | MCP-1 [6, 15]: 1554.20 pg/mL | MCP-1 [6, 16]: 89.98% | non-toxic (safely used) concentration ([7]; human, 50 h): up to 50 μM | Cell viability [8, 13]: 1.443 O.D. | Cell viability [8, 15]: 1.413 O.D. | Cell viability ([8]; human, 0.2 μM): 114.66% | Cell viability ([8]; human, 2 μM): 112.28%

polyinosinic:polycytidylic acid [Poly I:C]
GM-CSF ([1]; poly I:C 20 μg/mL alone): 53.09 pg/mL | GM-CSF [1, 17]: 266.74% | GM-CSF ([1]; poly I:C 50 μg/mL alone): 62.68 pg/mL | GM-CSF [1, 18]: 314.94% | GM-CSF ([1]; poly I:C 100 μg/mL alone): 76.98 pg/mL | GM-CSF [1, 19]: 386.75% | TNF-α ([2]; poly I:C 20 μg/mL alone): 2.74 pg/mL | TNF-α ([2]; poly I:C 20 μg/mL, percent of control values, control below the standard curve): 846.39% | TNF-α ([2]; poly I:C 50 μg/mL alone): 3.81 pg/mL | TNF-α ([2]; poly I:C 50 μg/mL, percent of control values, control below the standard curve): 1179.38% | TNF-α ([2]; poly I:C 100 μg/mL alone): 6.47 pg/mL and 6.470 pg/mL | TNF-α ([2]; poly I:C 100 μg/mL, percent of control values, control below the standard curve): 2001.03% | IL-8 ([4]; poly I:C 20 μg/mL alone): 657.01 pg/mL | IL-8 [4, 17]: 330.64% | IL-8 ([4]; poly I:C 50 μg/mL alone): 729.48 pg/mL | IL-8 [4, 18]: 367.11% | IL-8 ([4]; poly I:C 100 μg/mL alone): 918.50 pg/mL | IL-8 [4, 19]: 462.24% | IL-6 ([5]; poly I:C 20 μg/mL alone): 14.07 pg/mL | IL-6 [5, 17]: 523.57% | IL-6 ([5]; poly I:C 50 μg/mL alone): 19.50 pg/mL | IL-6 [5, 18]: 725.81% | IL-6 ([5]; poly I:C 100 μg/mL alone): 35.14 pg/mL | IL-6 [5, 19]: 1307.82% | MCP-1 ([6]; poly I:C 20 μg/mL alone): 369.54 pg/mL | MCP-1 [6, 17]: 704.95% | MCP-1 ([6]; poly I:C 50 μg/mL alone): 711.76 pg/mL | MCP-1 [6, 18]: 1357.80% | MCP-1 ([6]; poly I:C 100 μg/mL alone): 1727.32 pg/mL | MCP-1 [6, 19]: 3295.15% | increase in cytokine concentration, MCP-1 ([6]; poly I:C 100 μg/mL, vs control): up to 33 fold | Cell viability ([8]; poly I:C 20 μg/mL alone): 1.827 O.D. | Cell viability ([8]; poly I:C 50 μg/mL alone): 1.714 O.D. | Cell viability ([8]; poly I:C 100 μg/mL alone): 1.259 O.D.
